PubChem BioAssay (NCI)
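How tested: cells in 96-well plates exposed to compound for 48 hours at five concentrations. TGI: concentration producing complete growth inhibition.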

Key:
Assay in all cases: NCI tumour cell line growth inhibition, 48 h
EKVX NSCLC = system: EKVX NSCLC
K-562 leukemia = system: K-562 leukemia
LOX IMVI melanoma = system: LOX IMVI melanoma
MDA-N = system: MDA-N
MDA-MB-231 breast = system: MDA-MB-231 breast
A549 NSCLC = system: A549 NSCLC
OVCAR-3 ovarian = system: OVCAR-3 ovarian
SK-MEL-28 melanoma = system: SK-MEL-28 melanoma
SF-539 CNS = system: SF-539 CNS
OVCAR-8 ovarian = system: OVCAR-8 ovarian
SNB-19 CNS = system: SNB-19 CNS
UACC-62 melanoma = system: UACC-62 melanoma
HCT-15 colon = system: HCT-15 colon

Row | Compound | TGI (EKVX NSCLC) [µM] | TGI (K-562 leukemia) [µM] | TGI (LOX IMVI melanoma) [µM] | TGI (MDA-N) [µM] | TGI (MDA-MB-231 breast) [µM] | TGI (A549 NSCLC) [µM] | TGI (OVCAR-3 ovarian) [µM] | TGI (SK-MEL-28 melanoma) [µM] | TGI (SF-539 CNS) [µM] | TGI (OVCAR-8 ovarian) [µM] | TGI (SNB-19 CNS) [µM] | TGI (UACC-62 melanoma) [µM] | TGI (HCT-15 colon) [µM]
1 | CCOP(=O)(CS(C)=O)O[C@@H]1C[C@H](C)CC[C@H]1C(C)C (stereo partly specified) | 11.2 | > 100 | 3.77 | 8.97 | 12.8 | 17.7 | 15.7 | > 100 | 26.9 | 17.4 | 25.7 | 7.08 | 7.81
2 | O=C(/C=C/c1ccc(O)c(O)c1)NC(CO)C(=O)O (stereo unspecified) | > 100 | > 100 | > 100 | > 100 | > 100 | > 100 | > 100 | > 100 | > 100 | > 100 | > 100 | > 100 | > 100
3 | CCn1c(=O)c2c(=O)[nH][nH]c2c2ccccc21 | > 100 | > 100 | > 100 | > 100 | > 100 | > 100 | > 100 | > 100 | > 100 | > 100 | > 100 |  | > 100
4 | CCN(CC)c1ccc(/C=C/C2=NN(c3cccc(S(=O)(=O)O)c3)C3(C2)C(Cl)C(=O)N3c2nc3ccccc3s2)cc1 (stereo unspecified) | 39.2 | 49.8 | 9.12 | 30 | 27 | 28.7 | 17.4 | 63 | 10.6 | 31.4 | 29.7 | 20.6 | 24.1
5 | COc1ccc(NC=O)c(C(O)CCNC(C)=O)c1 (stereo unspecified) | > 100 | > 100 | > 100 | > 100 | > 100 | > 100 | > 100 |  | > 100 | > 100 | > 100 | > 100 | > 100
6 | COc1ccc(CSCc2cc(OC)c(OC)c(OC)c2)cc1 | > 31.6 | > 100 | > 31.6 | > 100 | > 100 | > 100 | > 100 | > 100 | > 100 | > 31.6 | > 100 | > 100 | > 100
